In patent US9950074B2, “Composition and delivery vehicle for active agents and methods therefor” (Georg-August-Universität Göttingen Stiftung Öffenlichen …, priority 2012, dated 2018):

Assays:
[1] = tested on: primary rat choroids plexus epithelial cells; settings: read-out: Km of FRα-dependent uptake; low extracellular folate concentrations; cited from earlier work
[2] = target: reduced folate carrier (RFC, SLC19A1) (Homo sapiens, UniProt P41440); settings: read-out: influx Km of the RFC; cited from earlier work
[3] = tested on: Z310 cells stably expressing FRα; experiment: [3H]5MTHF uptake with transporter inhibitors; assay type: cell-based, rat; settings: 12.5 nM [3H]5MTHF, 1 hour at 37° C.
Protocol: Z310 cells stably expressing FRα were incubated with 12.5 nM [^3H]5MTHF alone or together with TC, MTX, PAH, probenecid and digoxin for 1 hour at 37° C. Subsequently, cells were lysed and intracellular radioactivity was measured.
We performed additional experiments to evaluate FRα-independent transport processes in Z310 cells at physiological MTHF concentration (12.5 nM). A couple of organic anion transporters are known to be expressed in Z310 cells (Halwachs et al., 2011). […] At this concentration MTX is known to block FR-mediated MTHF binding as well.

[4] = tested on: Z310 cells stably transfected with FRα; experiment: apical release (shedding) of [3H]5MTHF from filter-grown Z310 cells; assay type: cell-based; settings: FRα-transfected Z310 cells loaded 1 h with [3H]5MTHF; 7 μM monensin or 0.5 mg/ml rat transferrin
Protocol: After three washing steps, cells were incubated with fresh RPMI medium containing either 7 μM monensin (Mon) or 0.5 mg/ml rat transferrin (Trans) or contained no supplementation. Samples from the apical and basolateral compartment were removed at the indicated time points. Subsequently, cells were lysed and radioactivity was measured in medium samples and cell lysates. Data are means±s.e.m. of three independent experiments.
For 5MTHF uptake and transport measurements in Z310 cells, 4.2*104 cells were seeded in laminin coated transwell culture plates (0.3 cm2 growth area, 0.4 μm pore size) in folate-free RPMI medium. To test the barrier function, dye permeability assays with lucifer yellow were performed. Cells were used for experiments when the permeability was below 1% per hour. […] Radioactivity in medium samples and cell lysates was measured in a liquid scintillation spectrometer.
FRα-transfected or vector-transfected Z310 cells were grown in a two chamber transwell system and [^3H]5MTHF was either given into the basolateral or apical compartment. After a 1 h incubation with [^3H]5MTHF the medium was replaced by fresh medium and the time-dependent emergence of [^3H]5MTHF in both compartments was detected.

[5] = tested on: primary porcine choroid plexus epithelial cells (PCPEC); experiment: apical transport of 5MTHF in primary PCPECs; assay type: cell-based; settings: PCPEC loaded with 25 nM [3H]5MTHF for 24 hours; 7 μM monensin
Protocol: Filter-grown PCPECs were loaded with 25 nM [^3H]5MTHF for 24 hours. Cells were then incubated with 7 μM monensin or left untreated. Radioactivity from medium samples was measured at the indicated time points. […] Data are means±s.e.m. of two independent experiments, each done in triplicate.
Porcine choroid plexus epithelial cells (PCPECs) were prepared basically as described previously (Hakvoort et al., 1998: J Neurochem 71, 1141-1150). Isolated PCPECs were seeded in laminin-coated transwell culture plates (0.4 μm pore size, Costar, Cambridge, Mass.) with a diameter of 12 mm using a seeding density of 20 mg wet tissue/cm2. The cell culture medium (DMEM-Ham's F-12, Biochrom, Berlin, Germany) was supplemented with 10% fetal calf serum, 4 mM glutamine, 5 μg/ml insulin, 100 U/mL penicillin and 100 μg/mL streptomycin. Cytosine arabinoside (20 μM) was added to suppress the growth of contaminating cells. After reaching confluence at days in vitro (DIV) 8, growth medium was replaced by serum-free culture medium (SFM) to support cell differentiation and improve barrier function. At DIV 10, the medium was replaced by folate-free RPMI medium (Invitrogen) without serum.
Filter-grown PCPEC were loaded with 25 nM [^3H]5MTHF for 24 hours. Subsequently, medium was changed and cells were treated with 7 μM monensin or left untreated.

[6] = tested on: primary mixed cortical cultures; experiment: internalization assay in primary mixed cortical cultures; assay type: cell-based, neonatal mice; settings: 2 hours at 37° C.
Protocol: Disassociated neonatal cortices from postnatal day 0-2 mice were cultured in DMEM supplemented with 10% fetal calf serum, 1% GlutaMAX (Invitrogen), 100 U/mL penicillin and 100 μg/mL streptomycin on laminin- and poly-L-lysin-coated coverslips at 37° C. in 5% CO2. Medium was changed every 3-4 days. At DIV 7-14, mixed cortical cultures consisting of oligodendrocytes, cortical neurons and microglia on an astrocyte monolayer were obtained.
Mixed cortical cultures were obtained form neonatal mice and immediately plated on coverslips and incubated in the respective growth medium. Before the internalization assay, exosomes were purified from Z310 cells, stably transfected with FRα or vector and labelled with PKH26 and FA-FITC as described above. The uptake was performed by incubating the cell cultures with exosome dilutions for 2 hours at 37° C. and 5% CO2. Cells were then fixed, permeabilized and stained with the respective antibodies for immunofluorescence analysis.
We have unexpectedly disclosed FRα as exosomal cargo in the CSF. To further understand the biological function of this transport mechanism we injected exosomes derived from FRα-transfected or vector-transfected Z310 cells into the lateral ventricle of C57BL/6 mice. […] After incubating the cells for 2 hours at 37° C., cells were fixed and analyzed by immunofluorescence microscopy.

Chain of reduced folate carrier (RFC, SLC19A1) (P41440 whole entry): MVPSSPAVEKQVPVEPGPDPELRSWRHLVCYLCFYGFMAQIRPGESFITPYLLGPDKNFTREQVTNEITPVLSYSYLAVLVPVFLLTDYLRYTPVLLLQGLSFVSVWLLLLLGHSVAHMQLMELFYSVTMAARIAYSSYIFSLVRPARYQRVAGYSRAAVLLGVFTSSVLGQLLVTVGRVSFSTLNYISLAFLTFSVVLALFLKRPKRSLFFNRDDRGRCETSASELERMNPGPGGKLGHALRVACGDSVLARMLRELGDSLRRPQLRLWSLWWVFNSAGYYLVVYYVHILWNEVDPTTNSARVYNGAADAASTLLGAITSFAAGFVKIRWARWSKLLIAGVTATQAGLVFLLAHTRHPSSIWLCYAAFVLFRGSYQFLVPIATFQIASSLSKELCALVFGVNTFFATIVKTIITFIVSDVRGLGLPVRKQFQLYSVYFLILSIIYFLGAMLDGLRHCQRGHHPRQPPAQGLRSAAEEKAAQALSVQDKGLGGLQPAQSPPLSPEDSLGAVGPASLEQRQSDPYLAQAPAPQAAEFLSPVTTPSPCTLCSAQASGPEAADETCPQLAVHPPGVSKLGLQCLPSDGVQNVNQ

Molecule: CN1c2c(nc(N)[nH]c2=O)NCC1CNc1ccc(C(=O)N[C@@H](CCC(=O)O)C(=O)O)cc1 (some centres unmarked) [5MTHF, 5-methyltetrahydrofolate]
- Km [1]: ~0.0095 µM
- Km [2]: 2 to 7 µM

Molecule: CN(Cc1cnc2nc(N)nc(N)c2n1)c1ccc(C(=O)N[C@@H](CCC(=O)O)C(=O)O)cc1 [MTX, methotrexate]
- effect on uptake of [3H]5MTHF ([3]; inhibitor at 10 μM): significantly reduced 5MTHF uptake

Molecule: C[C@H]1O[C@@H](O[C@H]2[C@@H](O)C[C@H](O[C@H]3[C@@H](O)C[C@H](O[C@H]4CC[C@@]5(C)[C@H](CC[C@@H]6[C@@H]5C[C@@H](O)[C@]5(C)[C@@H](C7=CC(=O)OC7)CC[C@]65O)C4)O[C@@H]3C)O[C@@H]2C)C[C@H](O)[C@@H]1O [digoxin]
- effect on uptake of [3H]5MTHF [3]: none of the inhibitors reduced the uptake

Molecule: CC[C@@]1([C@@H]2O[C@@H]([C@H]3O[C@@](O)(CO)[C@H](C)C[C@@H]3C)C[C@@H]2C)CC[C@H]([C@]2(C)CC[C@]3(C[C@H](O)[C@@H](C)[C@@H]([C@@H](C)[C@@H](OC)[C@H](C)C(=O)O)O3)O2)O1 [monensin]
- increase of apical shedding of [3H]5MTHF [4]: 70%
- enhancement of apical accumulation of [3H]5MTHF [5]: 33%

Molecule: Nc1ccc(C(=O)NCC(=O)O)cc1 [p-aminohippuric acid]
- effect on uptake of [3H]5MTHF [3]: none of the inhibitors reduced the uptake

Molecule: CCCN(CCC)S(=O)(=O)c1ccc(C(=O)O)cc1 [probenecid]
- effect on uptake of [3H]5MTHF [3]: none of the inhibitors reduced the uptake

Molecule: Folic acid conjugated to fluorescein isothiocyanate [FA-FITC]
- delivery of FA-FITC to cells ([6]; combined with FRα-positive exosomes): delivered to astrocytes
- internalization of FA-FITC by cells ([6]; free FA-FITC without exosomes): none of the cell types internalized free FA-FITC

B1: transferrin: rat transferrin (Rockland), known to induce exosome release from cells (protein, UniProt P12346 20-698, looked up)
Serotransferrin: VPDKTVKWCAVSEHENTKCISFRDHMKTVLPADGPRLACVKKTSYQDCIKAISGGEADAITLDGGWVYDAGLTPNNLKPVAAEFYGSLEHPQTHYLAVAVVKKGTDFQLNQLQGKKSCHTGLGRSAGWIIPIGLLFCNLPEPRKPLEKAVASFFSGSCVPCADPVAFPQLCQLCPGCGCSPTQPFFGYVGAFKCLRDGGGDVAFVKHTTIFEVLPQKADRDQYELLCLDNTRKPVDQYEDCYLARIPSHAVVARNGDGKEDLIWEILKVAQEHFGKGKSKDFQLFGSPLGKDLLFKDSAFGLLRVPPRMDYRLYLGHSYVTAIRNQREGVCPEGSIDSAPVKWCALSHQERAKCDEWSVSSNGQIECESAESTEDCIDKIVNGEADAMSLDGGHAYIAGQCGLVPVMAENYDISSCTNPQSDVFPKGYYAVAVVKASDSSINWNNLKGKKSCHTGVDRTAGWNIPMGLLFSRINHCKFDEFFSQGCAPGYKKNSTLCDLCIGPAKCAPNNREGYNGYTGAFQCLVEKGDVAFVKHQTVLENTNGKNTAAWAKDLKQEDFQLLCPDGTKKPVTEFATCHLAQAPNHVVVSRKEKAARVSTVLTAQKDLFWKGDKDCTGNFCLFRSSTKDLLFRDDTKCLTKLPEGTTYEEYLGAEYLQAVGNIRKCSTSRLLEACTFHKS
- increase of apical shedding of [3H]5MTHF [4]: 36%
